In article PMC7125190, “Native/citrullinated LL37-specific T-cells help autoantibody production in Systemic Lupus Erythematosus” (Scientific Reports, 2020):

Columns and labels:
[1] = system: PBMCs; experiment: LL37-specific T-cell help: autoantibodies in PBMC culture supernatants by ELISA; assay type: cell-based, human; settings: for anti-LL37/anti-cit-LL37 antibodies in culture supernatants: SLE PBMCs, 7 days
Protocol: Anti-native/cit-LL37, other antigen antibodies (anti-DNA and anti-RNA), and total anti-human IgG were measured by ELISA as described. Briefly, 96-well flat-bottom plates (Non-Binding surface polystyrene, Corning, USA) are coated with 2 μg/mL of native LL37/cit-LL37 or control proteins or human DNA or human RNA[9] or anti-human IgG antibody (Sigma) in carbonate buffer (0.1 M NaHCHO3, pH 9) for 2 hours (or over night) and washed four times with PBS 0.1% Tween-20. This washing buffer was used for washing at all steps. The blocking buffer containing 2% bovine serum albumin (BSA, Sigma) in PBS was used for at least 1 hour (or over night) to saturate unspecific binding sites. After washing, sera were diluted at various concentrations (usually 1:100 or 1:200) in PBS 2% BSA (cell culture supernatants were diluted 1:2, 1:4 or 1:10) followed by 1 hour incubation with a horseradish peroxidase–conjugated (HRP) goat anti-human IgG (Sigma-Aldrich), diluted 1:10,000 in PBS. The color was developed for 5 minutes with 3,3’,5,5’-tetramethylbenzidine (TMB) substrate (Sigma-Aldrich). The reaction was stopped by adding 50 μl of 2 N H2SO4, and absorbance determined at 450 nm with a reference wavelength of 540 nm. Anti-dsDNA in sera of lupus patients were detected by the standard clinical test Kallestad Crithidia luciliae Complete Kits for detection and semi-quantitation of autoantibodies to native DNA (nDNA) antigens by indirect fluorescence antibody (IFA) procedure. ELISA for detection of anti-tetanus antibodies (anti-TT) was from Abnova (Taiwan).
Peptide-MHC-tetramer staining of T-cell lines/clones and blood T-cells
Peptide-MHC-tetramers (Table S4) were from ProImmune, (UK), TC Metrix, (CH), Benaroya, (USA) and ImmunAware (Denmark). Staining was performed for 40 minutes at 37°C, followed by staining for CD4 (4°C, 20 minutes). Before flow cytometry-acquisition, cells were labelled with PercP-conjugated 7-AAD to exclude dead cells.
LL37 specific T-cell help for production of autoantibodies
We cultured patient PBMCs with LL37 or control antigens and low doses of hrIL-2 (added at day 6, 10U/mL), and we detected appearance of autoantibodies in the culture supernatants by ELISA at various time points (from 7-to 10 days and, when needed, after a second stimulation with autologous PBMCs and antigen). In parallel, we monitored appearance of markers typical of B-cells/plasma cells (CD20, CD27, CD38, CD138) in the CD3neg cells by flow cytometry.
Immunohistochemistry and laser scanner confocal microscopy (LSM)
We performed staining on […] paraffin or frozen sections of human lupus erythematosus skin specimens obtained from CHUV, Dept. of Dermatology. Staining with anti-cit-LL37 Mabs was performed using the antibodies Mab142 and Mab137 at 1:40 dilution, followed by incubation with a […] (Abcam). HRP and DAB (DAKO) were used to develop the color. Nuclear staining was performed with Mayer’s haematoxylin.
To visualize NETs, we seeded neutrophils on coverslips pre-treated with polylysine and stimulated them with various stimuli to induce release of the NETs. After 3 hours, cells were gently washed and stained with anti-CD15-PE or biotinylated polyclonal rabbit anti-LL37 antibodies (Innovagen), followed by addition of AlexaFluor 488-streptavidin. Frozen or paraffin-included SLE renal biopsies, obtained from Policlinico Umberto I, Rome, IT or CHUV Lausanne, CH, were stained, after saturation with blocking buffer (PBS, 0.05% tween 20, 4% BSA) for 1 hour at room temperature. Bopsies in paraffin were stained after de-paraffination in xilene (5 minutes, two times), followed by passages in: absolute ethanol (3 minutes), 95% ethanol in water (3 minutes), 80% ethanol in water (3 minutes), 70% ethanol in water (3 minutes), and antigen retrieval (5 minutes at […]

[2] = system: CD3+CD4+ T-cells; experiment: T-cell proliferation assay (BrdU incorporation of PBMC); assay type: cell-based, human; settings: for CLE patients whose CD3+CD4+ cells proliferated: CLE PBMC; for CLE patients whose CD3+CD4+ cells proliferated / SLE patients whose CD3+CD4+ cells proliferated: day 6, BrdU; for CLE patients whose CD3+CD4+ cells proliferated / PSO patients whose T-cells responded / RA patients whose T-cells proliferated / SLE patients whose CD3+CD4+ cells proliferated: positive if SI ≥3; for T-cell proliferation in HD/SSc: HD (LL37, cit-LL37) and SSc (LL37) PBMC; for PSO patients whose T-cells responded: PSO PBMC, ten of twenty-nine (LL37), 3 of 21 (cit-LL37); for PSO patients whose T-cells responded / RA patients whose T-cells proliferated: BrdU; for RA patients whose T-cells proliferated: RA PBMC, two of 15; for SLE patients whose CD3+CD4+ cells proliferated: SLE PBMC, 18 of 40 (LL37), 11 of 25 (cit-LL37); for Change of T-cell response on follow-up: eight SLE patients, up to 36 months of successful standard therapy, statistically significant for native LL37; for Proliferative response in LL37-non-responders: three SLE LL37-non-responders
Protocol: PBMCs were purified, from EDTA-treated blood, on Ficoll-Hypaque (Pharmacia Fine Chemicals, Uppsala, Sweden) were incubated (10^5 cells/well) in 96-well-flat-bottom-microplates (BD) in T cell- […]
penicillin, and 100 μg/mL streptomycin), with/without peptides. We performed assays on fresh cells, within 1-to-3 hours from collection, or on PBMCs frozen in 90% FCS-10%DMSO, whose viability we assessed by Trypan blue exclusion, at inverted microscope.
At day3 and 5, BrdU was added (1 μg/mL). BrdU-incorporation was detected by APC-labeled anti-BrdU antibody (BD Pharmingen), after surface staining by flow cytometry. Internal control for T-cell viability and proliferation was PHA treatment (2 μg/mL). SI for proliferation was calculated by dividing percent of BrdU-staining in the presence of each peptide used to stimulate cells by percent of BrdU-staining in the absence of peptide stimulation. SI for proliferation was considered positive when>3. This cut-off was obtained by calculating the mean+2DS [1.5 + 2 (0.6)] (of the stimulation indexes calculated as above) of the proliferation of HD.
Basal % of proliferation was set using, as reference, an isotype matched antibody staining (APC- […]
Assays were repeated twice with each patient. In rare cases in which background proliferation exceed antigen-specific proliferation the assay was repeated three times. Concomitant phenotype analysis of LL37-responder T-cells included staining for CD4, CD8, CXCR5, PD1, ICOS, CCR6. […]

Substance | anti-LL37/cit-LL37 antibody production ([1]; PBMCs of psoriasis patients whose T-cells proliferate to LL37, and HD PBMCs) | anti-LL37/anti-cit-LL37 antibodies in culture supernatants [1] | anti-HNPs and anti-TT antibodies ([1]; SLE cultures) | anti-DNA- and RNA-antibody reactivity ([1]; SLE cultures, sequential stimulation with autologous PBMCs and native LL37) | CLE patients whose CD3+CD4+ cells proliferated [2] | T-cell proliferation in HD/SSc [2] | PSO patients whose T-cells responded [2] | RA patients whose T-cells proliferated [2] | SLE patients whose CD3+CD4+ cells proliferated [2] | Change of T-cell response on follow-up [2] | Proliferative response in LL37-non-responders [2] | Proliferative response at remission ([2]; SLE at remission (T1), only at the highest dose) | Proliferative response at lower antigen dose, cit-LL37 versus native ([2]; SLE, low dose 1 μg/mL, 12 LL37/cit-LL37 responders)
LLGDFFRKSKEKIGKEFKRIVQRIKDFLRNLVPRTES [LL37, native LL37, antimicrobial peptide, 37 aa] | did not lead to significant anti-LL37/cit-LL37 antibody production | became apparent in culture supernatants | did not increase | became also detectable | three of five | No SSc or HD showed a significant response | 34% | 13% | 45% | decreased | no proliferation | – | –
LLGDFFR(cit)KSKEKIGKEFKR(cit)IVQR(cit)IKDFLR(cit)NLVPR(cit)TES [cit-LL37, citrullinated LL37 (citrullinated at all five arginin positions)] | – | became apparent in culture supernatants | did not increase | – | 3 of 5 | no responses in HD | 14% | 13% | 44% | decreased | no proliferation | still significant only in response to cit-LL37 | T-cells responded better to cit-LL37 than the native counterpart at lower antigen doses
